According to patent EP0074307A1, “Mixed bromo-iodo benzene compounds and contrast products containing them” (Société dite: GUERBET S.A., priority 1981, dated 1983):

Columns and labels:
complément = test: Complement activation (hemolytic concentration 50, CH 50); type: biochemical; design: unit not given here; conditions: higher CH 50 = less complement activation, better tolerance
Description: Les travaux d'Elliott C. Lasser (Investig. Radiol., 1974, 9, 4 6A) ont montré que les produits de contraste activent le complément, qui est un ensemble de protéines sériques dont l'activation peut conduire à des réactions anaphylactiques graves.
La mesure de cette activation est effectuée par la détermination de la concentration hémolytique 50 désignée CH 50. On estime que les produits moins activateurs du complément, c'est-à-dire ayant une CH 50 plus élevée , provoquent moins d'effets secondaires de type anaphylactiques et présentent donc une meilleure tolérance.

[1] = X-ray opacity measured via film densitometry, relative to Hexabrix; type: physicochemical; conditions: aqueous solutions of methylglucamine salts, same number of moles as Hexabrix (32 % iodine), X-ray source 70 kV
Description: L'opacité a été mesurée indirectement à l'aide de l'impression produite sur un film photographique par un faisceau de rayons X traversant une cuve contenant une solution aqueuse des composés. La transparence du film après développement a été mesurée à l'aide d'un densi- tomètre optique. Dans chaque cas, la mesure a été effectuée sur le même film et avec la même source de rayons X (70 kV) par comparaison avec un produit opacifiant servant de référence.
Comme produit de référence, on a utilisé l'Hexa- brix qui est une solution de sels de sodium et de méthyl- glucamine de l'acide ioxaglique à 32 % en iode.
Les composés selon l'invention ont été testés sous forme de solutions aqueuses de leurs sels de méthyl- glucamine contenant le même nombre de moles de composés que l'Hexabrix.

| Compound | CH 50 (complément) | Opacité relative/Hexabrix [1] |
| --- | --- | --- |
| CNC(=O)c1c(Br)c(C(=O)NCC(=O)Nc2c(I)cc(I)c(C(=O)O)c2I)c(Br)c(N(C)C(C)=O)c1Br [compound 8] | 11,5 | – |
| CNC(=O)c1c(I)c(NC(=O)CNC(=O)c2c(Br)cc(Br)c(N(C)C(C)=O)c2Br)c(I)c(C(=O)O)c1I [compound 5] | 7,4 | 0,92 |
| CNC(=O)c1c(Br)c(C(=O)NCC(=O)Nc2c(I)c(C(=O)O)c(I)c(C(=O)NCCO)c2I)c(Br)c(N(C)C(C)=O)c1Br [Composé 2, acide triiodo-2,4,6 N-hydroxyéthylcarbamoyl-3 (tribromo-2,4,6 N-méthylcarbamoyl-3 N-méthyl N-acétylamino-5 benzoyl) glycylamino-5 benzoïque] | 20,8 | 0,92 |
| CNC(=O)c1c(I)c(C(=O)NCC(=O)Nc2c(Br)c(C(=O)O)c(Br)c(C(=O)NCCO)c2Br)c(I)c(N(C)C(C)=O)c1I [compound 1, acide tribromo-2,4,6 N-hydroxyéthylcarbamoyl-3 (triiodo-2,4,6 N-méthylcarbamoyl-3 N-méthyl N-acétylamino-5 benzoyl) glycylamino-5 benzoique] | 20,2 | 0,91 |
| CNC(=O)c1c(Br)c(C(=O)NCCCC(=O)Nc2c(I)c(C(=O)O)c(I)c(C(=O)NCCO)c2I)c(Br)c(N(C)C(C)=O)c1Br [compound 13] | 15,3 | – |
| CNC(=O)c1c(I)c(NC(=O)CNC(=O)c2c(I)cc(I)c(N(C)C(C)=O)c2I)c(I)c(C(=O)O)c1I [Analogue complètement iodé du composé 5, reference compound] | 3,8 | – |
| CNC(=O)c1c(Br)c(C(=O)NCCC(=O)Nc2c(I)cc(I)c(C(=O)O)c2I)c(Br)c(N(C)C(C)=O)c1Br [compound 12] | 11,0 | – |
| CNC(=O)c1c(I)c(C(=O)NCC(=O)Nc2c(Br)cc(Br)c(C(=O)O)c2Br)c(I)c(N(C)C(C)=O)c1I [compound 7] | 10,0 | – |
